pEC50: −log10 of the molar value.

What is called pEC50 is the negative decadic logarithm of the EC50, by convention in mol/L. Low readings indicate a high EC50, high ones a low EC50.

For this assay, the target named is Wee1-like protein kinase (Homo sapiens, UniProt P30291). Nature of the assay: Wee1 Enzymatic Activity Inhibition Assay. On the procedure: The enzymatic assay used to determine activity was a Luminescence assay using a Microplate Reader (BMG, ClarioStar Plus). The enzymatic reaction was carried out in assay buffer (40 mM TRIS-HCl pH 7.4-7.6, 20 mM MgCl2, 0.05 mM DTT, 0.1 mg/ml BSA, 5 mM MnCl2). The compounds were dispensed on a 384 well Diamond Well Plate (Axigen, Cat #P-384-120SQ-C-S) using the Biomek FX liquid handling system at 100× solutions of compounds in DMSO. 2×Wee1-PolyE4Y1 mix (final concentration 0.85 ng/μl of Wee1 and 0.2 μg/μl of PolyE4Y1) was prepared in 1× Assay buffer and 5.5 μl of mixture per well was added into 384w white Reaction plate with NBS (Corning, Cat #4513). 5.5 μl of PolyE4Y1 substrate w/o Wee1 in 1× buffer was used for negative control. Plates were centrifuged for 1 min at 100 g. Next step the Compounds were added to Reaction plate using Biomek station via following steps: 1 μl of 100× compounds (in DMSO) were mixed thoroughly with 49 μl of 2×10 μM ATP in Assay Buffer, then 5.5 μl of this mixture was added to Reaction plate with 5.5 μl of Wee1-PolyE4Y1 mix. Plates were centrifuged for 1 min at 100 g and incubated for 1 h at room temperature. Next 3 μL of ADP-Glo reagent (Promega, ADP-Glo™ Kinase Assay, Cat #V9102) per well was added. Plates were incubated for 30 minutes at room temperature. Then 6 μL of Kinase detection reagent (Promega, ADP-Glo™ Kinase Assay, Cat #V9102) per well was added and the Luminescence was measured using Microplate Reader.
Wee1-like protein kinase, sequence (P30291 whole entry): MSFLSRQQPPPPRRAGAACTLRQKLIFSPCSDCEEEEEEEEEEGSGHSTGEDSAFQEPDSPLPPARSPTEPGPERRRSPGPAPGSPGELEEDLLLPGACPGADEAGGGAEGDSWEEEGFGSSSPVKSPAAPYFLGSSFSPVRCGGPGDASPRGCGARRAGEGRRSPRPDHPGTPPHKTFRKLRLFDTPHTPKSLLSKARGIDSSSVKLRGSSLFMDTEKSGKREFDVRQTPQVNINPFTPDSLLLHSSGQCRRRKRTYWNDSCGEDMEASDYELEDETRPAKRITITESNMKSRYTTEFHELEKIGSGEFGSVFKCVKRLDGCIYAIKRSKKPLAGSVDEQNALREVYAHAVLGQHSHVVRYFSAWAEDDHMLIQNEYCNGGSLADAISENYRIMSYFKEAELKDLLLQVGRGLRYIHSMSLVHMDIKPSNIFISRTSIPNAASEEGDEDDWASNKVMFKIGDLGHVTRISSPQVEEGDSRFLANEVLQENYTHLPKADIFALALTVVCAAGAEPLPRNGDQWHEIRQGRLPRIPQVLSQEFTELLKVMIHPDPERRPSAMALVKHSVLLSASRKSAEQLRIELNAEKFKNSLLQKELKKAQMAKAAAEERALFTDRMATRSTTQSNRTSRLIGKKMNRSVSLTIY
`C=CCn1c(=O)c2cnc(N3CCN(C(=O)c4cc(Cc5n[nH]c(=O)c6ccccc56)ccc4F)CC3)nc2n1-c1cccc(C(C)(C)O)n1` [US20250270212, Compound 2] had a negative logarithm of the EC50 (pEC50) below 6.00.
To `C=CCn1c(=O)c2cnc(NC3CCN(Cc4ccc(-c5[nH]c6cc(F)cc7c6c5CCNC7=O)cc4)CC3)nc2n1-c1cccc(C(C)(C)O)n1` [US20250270212, Compound 47] belongs below 6.00; to `Cn1c(=O)c2cnc(Nc3ccc(N4CCN(Cc5cc(Cc6n[nH]c(=O)c7ccccc67)ccc5F)CC4)cc3)nc2n1-c1cccc(C(C)(C)O)n1` [US20250270212, Compound 8], above 8.00; to `Cn1c(=O)c2cnc(N3CCN(C(=O)c4cc(Cc5n[nH]c(=O)c6ccccc56)ccc4F)CC3)nc2n1-c1ccccn1` [US20250270212, Compound 5], below 6.00.
`C=CCn1c(=O)c2cnc(Nc3ccc(N4CCN(Cc5cc(Cn6c(=O)[nH]c(=O)c7c(F)cccc76)ccc5F)CC4)cc3)nc2n1-c1cccc(C(C)(C)O)n1` [US20250270212, Compound 34] had a pEC50 above 8.00.
In the case of `Cn1c(=O)c2cnc(Nc3ccc(N4CCN(C(=O)c5cc(Cc6n[nH]c(=O)c7ccccc67)ccc5F)CC4)cc3)nc2n1-c1cccc(C(C)(C)O)n1` [US20250270212, Compound 7] it was above 8.00; in that of `Cn1c2nc(Nc3ccc(N4CCN(C(=O)c5cc(Cc6n[nH]c(=O)c7ccccc67)ccc5F)CC4)cc3)ncc2c(=O)n1-c1ccccn1` [US20250270212, Compound 12], below 6.00.
In the case of `Cn1c2nc(Nc3ccc(N4CCN(C(=O)c5cc(Cn6c(=O)[nH]c(=O)c7c(F)cccc76)ccc5F)CC4)cc3)ncc2c(=O)n1-c1ccccn1` [US20250270212, Compound 17] it was below 6.00.
To `C=CCn1c(=O)c2cnc(NC3CCN(C(=O)c4cc(Cc5n[nH]c(=O)c6ccccc56)ccc4F)CC3)nc2n1-c1cccc(C(C)(C)O)n1` [US20250270212, Compound 4] belongs below 6.00; to `Cn1c(=O)c2cnc(Nc3ccc(N4CCCC(c5nc6cccc(C(N)=O)c6[nH]5)C4)cc3)nc2n1-c1ccccn1` (stereo unspecified) [US20250270212, Compound 96], above 8.00.
As to `C=CCn1c(=O)c2cnc(Nc3ccc(N4CCN(Cc5ccc(-c6[nH]c7cc(F)cc8c7c6CCNC8=O)cc5)CC4)cc3)nc2n1-c1ccccn1` [US20250270212, Compound 39], the negative logarithm of the EC50 (pEC50) was above 8.00.
To `Cn1c2nc(Nc3ccc(N4CCC(c5nc6cccc(C(N)=O)c6[nH]5)CC4)cc3)ncc2c(=O)n1-c1ccccn1` [US20250270212, Compound 91] belongs below 6.00.
To `C=CCn1c(=O)c2cnc(Nc3ccc(N4CCN(C(=O)c5cc(Cn6c(=O)[nH]c(=O)c7c(F)cccc76)ccc5F)CC4)cc3)nc2n1-c1cccc(C(C)(C)O)n1` [US20250270212, Compound 16] belongs above 8.00; to `C=CCn1c(=O)c2cnc(NCCNC(=O)c3cc(Cc4n[nH]c(=O)c5ccccc45)ccc3F)nc2n1-c1cccc(C(C)(C)O)n1` [US20250270212, Compound 6], below 6.00; to `C=CCn1c(=O)c2cnc(Nc3ccc(N4CCN(C(=O)c5cc(Cn6c(=O)[nH]c(=O)c7c(F)cccc76)ccc5F)CC4)cc3)nc2n1-c1ccccn1` [US20250270212, Compound 28], above 8.00.
In the case of `C=CCn1c(=O)c2cnc(Nc3ccc(N4CCN(C(=O)c5cc(Cc6n[nH]c(=O)c7ccccc67)ccc5F)CC4)cc3)nc2n1-c1cccc(C(C)(C)O)c1` [US20250270212, Compound 1] it was above 8.00.

Values taken from BindingDB's records for patent US20250270212 (Padarn Therapeutics, 2025).
